Test results as given in patent US20240368174A1, “Antiviral Heterocyclic Compounds” (Enanta Pharmaceuticals, Inc., priority 2023, published 2024).

Test system: HMPV clinical isolate A2 strain TN 94-49
Assay: HMPV antiviral assay, Method 2 (LLC-MK2 cells with CP-100-356, ATP-Lite)
Type: cell-based
Conditions: human metapneumovirus; hMPV A2 TN/94-49, LLC-MK2 cells with CP-100-356, Method 2
How it was run: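 EC50 comes from a four-parameter fit of percent cell viability (ATP-Lite, normalized to virus-only and cell-only wells) after 7 days at 37 °C. Infection used HMPV A2 TN 94-49 at MOI 0.16 in LLC-MK2 cells, with 2 μM P-gp inhibitor CP-100-356 and 2 μg/mL TPCK-trypsin final; dose range 200 nM top, 2.5-fold, 10 points, duplicate.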

SMILES | EC50 [nM]
COc1cc(C(=O)NC[C@@](O)(c2ccnc(F)c2)c2cc3c(c(-c4cccc(Cl)c4Cl)n2)OC[C@]3(C)C(N)=O)cc2cn(C3CC3)nc12 [Example 492] | < 200
COc1cc(C(=O)NC[C@@](O)(c2cccc(C(C)=O)c2)c2cc3c(c(-c4cccc(Cl)c4Cl)n2)OC[C@]3(C)C(N)=O)cc2cn(C3CC3)nc12 [Example 493] | < 200
COc1cc([C@](O)(CNC(=O)c2cc(OC)c3nn(C4CC4)cc3c2)c2cc3c(c(-c4cccc(Cl)c4Cl)n2)OC[C@]3(C)C(N)=O)ccn1 [Example 494] | < 200
COc1cc(C(=O)NC[C@@](O)(c2cccc(C(C)O)c2)c2cc3c(c(-c4cccc(Cl)c4Cl)n2)OC[C@]3(C)C(N)=O)cc2cn(C3CC3)nc12 (stereo partly drawn) [Example 495] | > 200
COc1cccc([C@](O)(CNC(=O)c2cc(OC)c3nn(C4CC4)cc3c2)c2cc3c(c(-c4cccc(Cl)c4Cl)n2)OC[C@]3(C)C(N)=O)n1 [Example 496] | < 200
COc1cc([C@](O)(CNC(=O)c2cc(OC)c3nn(C4CC4)cc3c2)c2cc3c(c(-c4cccc(Cl)c4Cl)n2)OC[C@]3(C)C(N)=O)cc(OC)n1 [Example 497] | < 200
COc1cc([C@](O)(CNC(=O)c2cc(OC)c3nn(C(F)F)cc3c2)c2cc3c(c(-c4cccc(Cl)c4Cl)n2)OC[C@]3(C)C(N)=O)cc(OC)n1 [Example 498] | < 200
COc1cc(C(=O)NCC(O)(c2cc(F)nc(F)c2)c2cc3c(c(-c4cccc(Cl)c4Cl)n2)OC[C@]3(C)C(N)=O)cc2cn(C3CC3)nc12 (stereo partly drawn) [Example 499] | < 200
COc1cc(C(=O)NCC(O)(c2cc(F)nc(F)c2)c2cc3c(c(-c4cccc(Cl)c4Cl)n2)OC[C@]3(C)C(N)=O)cc2cn(C(F)F)nc12 (stereo partly drawn) [Example 500] | < 200
COc1cc(C(=O)NC[C@@](O)(c2ccnc(C#N)c2)c2cc3c(c(-c4cc(Cl)c(F)cc4F)n2)OC[C@]3(C)C(N)=O)cc2cn(C3CC3)nc12 [Example 501] | < 200
COc1cc([C@](O)(CNC(=O)c2cc(OC)c3nn(C4CC4)cc3c2)c2cc3c(c(-c4cc(Cl)c(F)cc4F)n2)OC[C@]3(C)C(N)=O)cc(F)n1 [Example 503] | < 200
COc1cc(C(=O)NC[C@@](O)(c2cc[nH]c(=O)c2)c2cc3c(c(-c4cc(Cl)c(F)cc4F)n2)OC[C@]3(C)C(N)=O)cc2cn(C3CC3)nc12 [Example 504] | > 200
COc1cc(C(=O)NC[C@@](O)(c2ccc(=O)[nH]c2)c2cc3c(c(-c4cc(Cl)c(F)cc4F)n2)OC[C@]3(C)C(N)=O)cc2cn(C3CC3)nc12 [Example 505] | > 200
COc1cc(C(=O)NC[C@](O)(c2cc3c(c(-c4cc(Cl)c(F)cc4F)n2)OC[C@]3(C)C(N)=O)C2(C)CC2)cc2cn(C3CC3)nc12 [Example 516] | < 200
COc1cc(C(=O)NC[C@](O)(c2cc3c(c(-c4ccnc(Cl)c4Cl)n2)OC[C@]3(C)C(N)=O)C2(F)CC2)cc2cn(C3(F)CC3)nc12 [Example 519] | < 200
COc1cc(C(=O)NC[C@](O)(c2cc3c(c(-c4ccnc(Cl)c4Cl)n2)OC[C@]3(C)C(N)=O)C2(F)CC2)cc2oc(C3CC3)nc12 [Example 520] | < 200
COc1cc(C(=O)NC[C@](O)(c2cc3c(c(-c4ccnc(Cl)c4Cl)n2)OC[C@]3(C)C(N)=O)C2(F)CC2)cc2cn(C(F)F)nc12 [Example 521] | < 200
COc1cc(C(=O)NC[C@](O)(c2cc3c(c(-c4ccnc(Cl)c4Cl)n2)OC[C@]3(C)C(N)=O)C2(F)CC2)cn2cc(C3(F)CC3)nc12 [Example 522] | < 200
C[C@]1(C(N)=O)COc2c1cc([C@@](O)(CNC(=O)c1cc(Cl)c3nn(C4CC4)cc3c1)C1(F)CC1)nc2-c1ccnc(Cl)c1Cl [Example 523] | < 200
COc1cc(C(=O)NC[C@](O)(c2cc3c(c(-c4ccnc(Cl)c4Cl)n2)OC[C@]3(C)C(N)=O)C2(F)CC2)cc2sc(C)nc12 [Example 524] | < 200

SMILES | EC50 [nM]
COc1cc(C(=O)NC[C@](O)(c2cc3c(c(-c4ccnc(C)c4Cl)n2)OC[C@]3(C)C(N)=O)C2(F)CC2)cc2cn(C3(F)CC3)nc12 [Example 525] | < 200
COc1cc(C(=O)NC[C@](O)(c2cc3c(c(-c4ccnc(C)c4Cl)n2)OC[C@]3(C)C(N)=O)C2(F)CC2)cn2cc(C3(F)CC3)nc12 [Example 528] | > 200
Cc1nccc(-c2nc([C@@](O)(CNC(=O)c3cc(Cl)c4nn(C5CC5)cc4c3)C3(F)CC3)cc3c2OC[C@]3(C)C(N)=O)c1Cl [Example 529] | > 200
COc1cc(C(=O)NC[C@](O)(c2cc3c(c(-c4ccnc(C)c4Cl)n2)OC[C@]3(C)C(N)=O)C2(F)CC2)cc2sc(C)nc12 [Example 530] | > 200
COc1cc(C(=O)NC[C@](O)(c2cc3c(c(-c4ccnc(C)c4Cl)n2)OC[C@]3(C)C(N)=O)C2(F)CC2)cc2oc(C3(F)CC3)nc12 [Example 532] | > 200
COc1cc(C(=O)NC[C@](O)(c2cc3c(c(-c4ccnc(C)c4Cl)n2)OC[C@]3(C)C(N)=O)C2(F)CC2)cc2oc(C(F)F)nc12 [Example 533] | > 200
C[C@]1(C(N)=O)COc2c1cc([C@@](O)(CNC(=O)c1cc(Cl)c3nn(C4CC4)cc3c1)C(F)(F)F)nc2-c1ccnc(C(F)(F)F)c1Cl [Example 535] | < 200
COc1cc(C(=O)NC[C@](O)(c2cc3c(c(-c4ccnc(C(F)(F)F)c4Cl)n2)OC[C@]3(C)C(N)=O)C(F)(F)F)cc2sc(C)nc12 [Example 537] | < 200
COc1cc(C(=O)NC[C@@](O)(c2cccc(F)c2)c2cc3c(c(-c4ccnc(C)c4Cl)n2)OC[C@]3(C)C(N)=O)cc2cn(C(F)F)nc12 [Example 538] | < 200
COc1cc(C(=O)NC[C@@](O)(c2cccc(F)c2)c2cc3c(c(-c4ccnc(C)c4Cl)n2)OC[C@]3(C)C(N)=O)cc2cn(C3(F)CC3)nc12 [Example 539] | < 200
COc1cc(C(=O)NC[C@@](O)(c2cccc(F)c2)c2cc3c(c(-c4ccnc(C)c4Cl)n2)OC[C@]3(C)C(N)=O)cc2oc(C3CC3)nc12 [Example 540] | < 200
COc1cc(C(=O)NC[C@@](O)(c2ccc(F)cc2)c2cc3c(c(-c4ccnc(C(F)(F)F)c4F)n2)OC[C@]3(C)C(N)=O)cc2oc(C(F)F)nc12 [Example 541] | < 200
COc1nccc(-c2nc([C@@](O)(CNC(=O)c3cc(Cl)c4nn(C5CC5)cc4c3)C(F)(F)F)cc3c2OC[C@]3(C)C(N)=O)c1Cl [Example 544] | < 200
COc1nccc(-c2nc([C@@](O)(CNC(=O)c3cc(OC)c4nc(C5CC5)oc4c3)C(F)(F)F)cc3c2OC[C@]3(C)C(N)=O)c1Cl [Example 545] | < 200
COc1nccc(-c2nc([C@@](O)(CNC(=O)c3cc(OC)c4nc(C)sc4c3)C(F)(F)F)cc3c2OC[C@]3(C)C(N)=O)c1Cl [Example 546] | < 200
COc1nccc(-c2nc([C@@](O)(CNC(=O)c3cc(OC)c4nc(C(F)F)oc4c3)C(F)(F)F)cc3c2OC[C@]3(C)C(N)=O)c1Cl [Example 547] | > 200
C[C@]1(C(N)=O)COc2c1cc([C@@](O)(CNC(=O)c1cc(Cl)c3nn(C4CC4)cc3c1)C(F)(F)F)nc2-c1ccnc(C(F)F)c1Cl [Example 549] | < 200
COc1cc(C(=O)NC[C@](O)(c2cc3c(c(-c4ccnc(C(F)F)c4Cl)n2)OC[C@]3(C)C(N)=O)C(F)(F)F)cc2sc(C)nc12 [Example 551] | < 200
COc1cc(C(=O)NC[C@](O)(c2cc3c(c(-c4ccnc(C(F)F)c4Cl)n2)OC[C@]3(C)C(N)=O)C(F)(F)F)cc2oc(C(F)F)nc12 [Example 552] | < 200
